Earlier results as cited in patent US8476254B2, “Methods for treating psychosis associated with interferson-α therapy” (Corcept Therapeutics, Inc., priority 2002, dated 2013).

Settings: % of the daily dose; in one study (Kawai)

SMILES: CC#C[C@]1(O)CC[C@H]2[C@@H]3CCC4=CC(=O)CCC4=C3[C@@H](c3ccc(N(C)C)cc3)C[C@@]21C [Mifepristone, 17-beta-hydroxy-11-beta-(4-dimethyl-aminophenyl)-17-alpha-(1-propynyl)-estra-4,9-dien-3-one]
- fraction of the daily dose excreted in the urine: less than 0.5%
